Results reported in patent US20170002011A1, “BENZENE SULFONAMIDES AS CCR9 INHIBITORS” (NORGINE B.V., priority 2013, published 2017).

Experiments:
CCR9 [1] = target: T1, CCR9 (Homo sapiens, UniProt P51686); test: FLIPR calcium flux assay using MOLT4 cells (TECK stimulation); format: cell-based; design: endogenous in cells; host or cells: MOLT4 (human T-cell line); conditions: MOLT4 cells (a human T-cell line); Ki determined from IC50 of TECK-induced intracellular calcium increase
T1 sequence (P51686 1-369): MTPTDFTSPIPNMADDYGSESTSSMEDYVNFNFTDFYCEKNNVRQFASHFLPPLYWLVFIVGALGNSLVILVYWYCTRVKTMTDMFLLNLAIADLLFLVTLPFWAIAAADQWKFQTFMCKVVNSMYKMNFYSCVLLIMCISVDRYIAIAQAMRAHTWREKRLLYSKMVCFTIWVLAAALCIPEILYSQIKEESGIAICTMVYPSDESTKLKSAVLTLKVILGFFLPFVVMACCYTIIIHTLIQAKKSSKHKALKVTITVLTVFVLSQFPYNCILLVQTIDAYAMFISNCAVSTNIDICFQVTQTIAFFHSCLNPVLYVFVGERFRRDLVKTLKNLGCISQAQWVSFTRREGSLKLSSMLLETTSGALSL
Experimental: Biological Activity: FLIPR Assay Using MOLT4 Cells
A calcium flux assay was used to determine the ability of the compounds to interfere with the binding between CCR9 and its chemokine ligand (TECK) in MOLT4 cells (a human T-cell line). MOLT4 cells were seeded (100,000 cells/well) in coming cell culture plates (Cat #3603) in assay buffer (lx HBSS, 20 mM HEPES) containing 2.5 mM Probenecid. The plate was centrifuged at 1200 rpm for 3 minutes and incubated at 37° C./5% CO2 for 2 hours. A 0.3× Fluo-4 NW calcium dye was prepared in assay buffer containing 5 mM Probenecid and stored in the dark. Each well was loaded with 25 μL of 0.3× Fluo-4 NW calcium dye and incubated at 37 C/5% CO2 for 60 minutes and then at room temperature for 30 minutes. A half-log serially diluted concentration response curve was prepared at a 4× concentration for each (10 μM-0.1 nM final assay concentration) and 25 μL of the compound then transferred to the cells (100 μL final volume) for 60 minutes prior to stimulation (30 minutes at 37° C./5% CO2 and 30 minutes at room temperature). TECK was diluted to 5× its EC50 in assay buffer (containing 0.1% [w/v] bovine serum albumin [BSA]) and 25 μL dispensed through the FLIPR instrument to stimulate the cells (125 μL final volume). The increased in intracellular calcium levels was measured with the FLIPR instrument. The potency of the compound as CCR9 antagonist was calculated as an IC50 using GraphPad Prism software (variable slope four parameter). The Ki of the compound was determined from the IC50 values using the following equation.
(§1) Ki calculation: IC50/1+(Agonist (TECK) conc. used in assay/EC50 of agonist (TECK) generated on day of experiment)

CCR9 [2] = target: T1, CCR9; test: FLIPR calcium flux assay using hCCR9 over expressed cells (TECK stimulation); format: cell-based; design: expressed in transfected cells; host or cells: Chem-1 cells overexpressing hCCR9; conditions: Chem1-hCCR9 overexpressing cells; Ki determined from IC50 of TECK-induced intracellular calcium increase
Experimental: Biological Activity: FLIPR Assay Using hCCR9 Over Expressed Cells
A calcium flux assay was used to determine the ability of the compounds to interfere with the binding between CCR9 and its chemokine ligand (TECK) in Cheml-hCCR9 overexpressing cells. hCCR9 overexpressing cells were seeded (25,000 cells/well) into black Poly-D-Lysine coated clear bottom 96-well plates (BD Biosciences, Cat #356640) and incubated overnight at 37° C./5% CO2 in a humidified incubator. Media was aspirated and cells washed twice with 100 μL assay buffer (1×HBSS, 20 mM HEPES) containing 2.5 mM Probenecid. A 0.3× Fluo-4 NW calcium dye was prepared in assay buffer containing 5 mM Probenecid and stored in the dark. Each well was loaded with 100 μL of 0.3× Fluo-4 NW calcium dye and incubated at 37° C./5% CO2 for 60 minutes and then at room temperature for 30 minutes. A half-log serially diluted concentration response curve was prepared at a 3× final assay concentration for each compound (10 μM−0.1 nM final assay concentration) and 50 μL of the compound then transferred to the cells (150 μL final volume) for 60 minutes prior to stimulation (30 minutes at 37° C./5% CO2 and 30 minutes at room temperature). TECK was diluted to 4× its ECso in assay buffer (containing 0.1% [w/v] bovine serum albumin[BSA]) and 50 μL dispensed through the fluorometric imaging plate reader (FLIPR) instrument to stimulate the cells (200 μL final volume). The increase in intracellular calcium levels was measured with the FLIPR instrument. The potency of the compound as a CCR9 antagonist was calculated as an IC50 using GraphPad Prism software (variable slope four parameter). The Ki of the compound was determined from the IC50 values using the following equation.
as §1

Structure (SMILES) | Ki (CCR9 [1]) [nM] | Ki (CCR9 [2]) [nM]
Cc1cc2nccc(NS(=O)(=O)c3ccc(C(C)(C)C)cc3)n2n1 [Compound 3] | 315 | 1440
CC(C)(C)c1ccc(S(=O)(=O)Nc2ccnc3cc(C4CC4)nn23)cc1 [Compound 37, 4-(tert-butyl)-N-(2-cyclopropylpyrazolo[1,5-a]pyrimidin-7-yl)benzenesulfonamide] | 703 | 1950
CC(C)c1cc2nccc(NS(=O)(=O)c3ccc(C(C)(C)C)cc3)n2n1 [Compound 79, 4-(tert-butyl)-N-(2-isopropylpyrazolo[1,5-a]pyrimidin-7-yl)benzenesulfonamide] | 295 | 1520
CCc1cc2nccc(NS(=O)(=O)c3ccc(C(C)(C)C)cc3)n2n1 [Compound 85, 4-(tert-butyl)-N-(2-ethylpyrazolo[1,5-a]pyrimidin-7-yl)benzenesulfonamide] | 111 | 1800
Cc1cc2c(Cl)ccc(NS(=O)(=O)c3ccc(C(C)(C)C)cc3)n2n1 [Compound 94, 4-(tert-butyl)-N-(4-chloro-2-methylpyrazolo[1,5-a]pyridin-7-yl)benzenesulfonamide] | 162 | 181
Cc1cc2c(Cl)ccc(NS(=O)(=O)c3ccc(C(C)(C)C#N)cc3)n2n1 [Compound 98] | 109 | 512
CC(C)(C)c1ccc(S(=O)(=O)Nc2ccc(Cl)c3cc(C4CC4)nn23)cc1 [Compound 105] | 285 | 56
CC(C)(C)c1ccc(S(=O)(=O)Nc2ccc(Cl)c3cc(-c4cccnc4)nn23)cc1 [Compound 110, 4-(tert-butyl)-N-(4-chloro-2-(pyridin-3-yl)pyrazolo[1,5-a]pyridin-7-yl)benzenesulfonamide] | 115 | 394
CC(C)(C)c1ccc(S(=O)(=O)Nc2ccc(Cl)c3cc(-c4ccc[n+]([O-])c4)nn23)cc1 [Compound 111, 3-(7-((4-(tert-butyl)phenyl)sulfonamido)-4-chloropyrazolo[1,5-a]pyridin-2-yl)pyridine 1-oxide] | 56 | 190
O=S(=O)(Nc1ccc(Cl)c2cc(-c3cccnc3)nn12)c1ccc(C(F)(F)F)cc1 [Compound 113] | 187 | 756
CC(C)(C)c1ccc(S(=O)(=O)Nc2ccc(C#N)c3cc(-c4cccnc4)nn23)cc1 [Compound 149, 4-(tert-butyl)-N-(4-cyano-2-(pyridin-3-yl)pyrazolo[1,5-a]pyridin-7-yl)benzenesulfonamide] | 87 | 159
Cn1ccc(-c2cc3c(C#N)ccc(NS(=O)(=O)c4ccc(C(C)(C)C)cc4)n3n2)c1 [Compound 159] | 96 | 136
COc1cncc(-c2cc3c(C#N)ccc(NS(=O)(=O)c4ccc(C(C)(C)C)cc4)n3n2)c1 [Compound 161] | 62 | 127
CC(C)(C)c1ccc(S(=O)(=O)Nc2ccc(Cl)c3cc(-c4cnco4)nn23)cc1 [Compound 169, 4-(tert-butyl)-N-(4-chloro-2-(oxazol-5-yl)pyrazolo[1,5-a]pyridin-7-yl)benzenesulfonamide] | 164 | 343
CC(C)(C)c1ccc(S(=O)(=O)Nc2ccc(Cl)c3cc(-c4ccsc4C(=O)O)nn23)cc1 [Compound 172, 3-(7-((4-(tert-butyl)phenyl)sulfonamido)-4-chloropyrazolo[1,5-a]pyridin-2-yl)thiophene-2-carboxylic acid] | 79 | 129
Cn1cnc(-c2cc3c(Cl)ccc(NS(=O)(=O)c4ccc(C(C)(C)C)cc4)n3n2)c1 [Compound 182] | 80 | 168
Cn1ccc(-c2cc3c(Cl)ccc(NS(=O)(=O)c4ccc(C(C)(C)C)cc4)n3n2)n1 [Compound 183] | 95 | 94
Cc1c(-c2cc3c(C#N)ccc(NS(=O)(=O)c4ccc(C(C)(C)C)cc4)n3n2)cnn1C [Compound 190] | 54 | 114
Cn1nnc(-c2cc3c(Cl)ccc(NS(=O)(=O)c4ccc(C(C)(C)C)cc4)n3n2)n1 [Compound 192] | 161 | 183
Cc1cncc(-c2cc3c(Cl)ccc(NS(=O)(=O)c4ccc(C(C)(C)C)cc4)n3n2)c1 [Compound 199] | 105 | 63

Stronger by Ki (CCR9 [1]), values ahead:

Ki (CCR9 [1]) [nM] | Ki (CCR9 [2]) [nM] | Structure (SMILES)
19 | 456 | Cc1cc2nccc(NS(=O)(=O)c3ccc(-c4cnco4)cc3)n2n1 [Compound 1, N-(2-methylpyrazolo[1,5-a]pyrimidin-7-yl)-4-(oxazol-5-yl)benzenesulfonamide]
2 | 110 | Cc1cc2c(C#N)ccc(NS(=O)(=O)c3ccc(C(C)(C)C)cc3)n2n1 [Compound 95, 4-(tert-butyl)-N-(4-cyano-2-methylpyrazolo[1,5-a]pyridin-7-yl)benzene sulfonamide]
41 | 125 | Cn1nccc1-c1cc2c(C#N)ccc(NS(=O)(=O)c3ccc(C(C)(C)C)cc3)n2n1 [Compound 152]
51 | 107 | CC(C)(C)c1ccc(S(=O)(=O)Nc2ccc(C#N)c3cc(-c4cncc(F)c4)nn23)cc1 [Compound 156, 4-(tert-butyl)-N-(4-cyano-2-(5-fluoropyridin-3-yl)pyrazolo[1,5-a]pyridin-7-yl)benzenesulfonamide]
48 | 186 | Cc1cc(-c2cc3c(C#N)ccc(NS(=O)(=O)c4ccc(C(C)(C)C)cc4)n3n2)n(C)n1 [Compound 158]
34 | 112 | CC(C)(C)c1ccc(S(=O)(=O)Nc2ccc(C#N)c3cc(-c4cn[nH]c4)nn23)cc1 [Compound 164, 4-(tert-butyl)-N-(4-cyano-2-(1H-pyrazol-4-yl)pyrazolo[1,5-a]pyridin-7-yl)benzenesulfonamide]
30 | 133 | CC(C)(C)c1ccc(S(=O)(=O)Nc2c(C#N)ccc3cc(-c4cccnc4)nn23)cc1 [Compound 180, 4-(tert-butyl)-N-(6-cyano-2-(pyridin-3-yl)pyrazolo[1,5-a]pyridin-7-yl)benzenesulfonamide]
22 | 17 | Cn1ccc(-c2cc3c(C#N)ccc(NS(=O)(=O)c4ccc(C(C)(C)C)cc4)n3n2)n1 [Compound 184]
31 | 67 | CC(C)n1cc(-c2cc3c(Cl)ccc(NS(=O)(=O)c4ccc(C(C)(C)C)cc4)n3n2)cn1 [Compound 186]
10 | 22 | CCn1cc(-c2cc3c(C#N)ccc(NS(=O)(=O)c4ccc(C(C)(C)C)cc4)n3n2)cn1 [Compound 189]
19 | 9 | CC(C)n1cc(-c2cc3c(C#N)ccc(NS(=O)(=O)c4ccc(C(C)(C)C)cc4)n3n2)cn1 [Compound 191]
26 | 54 | COc1ccc(-c2cc3c(C#N)ccc(NS(=O)(=O)c4ccc(C(C)(C)C)cc4)n3n2)cn1 [Compound 198]
20 | 12 | Cc1cncc(-c2cc3c(C#N)ccc(NS(=O)(=O)c4ccc(C(C)(C)C)cc4)n3n2)c1 [Compound 200]
